Source: patent US9012611B2, “Use of 3,8,12,14, 17,20-oxo-substituted pregnene glycosides in the preparation of healthcare products, food additives and pharmaceuticals for the inhibition of appetite” (Institute of Materia Medica, Chinese Academy of Sciences, priority 2010, dated 2015)
Counter-ions that a name gives are not always drawn.

Experiments:
female Wistar rat = assay: Animal test in vivo: average food consumption (appetite inhibition); details: positive control 15 mg/kg
Experimental: (§1) 6-7 weeks-old female Wistar rat (purchased from Shanghai Laboratory Animal Center of Chinese Academy of Sciences)(weight: 110-150 g) was raised alone in suspended metal cage. After the experimental rat was obtained, it was checked to make sure whether they were abnormal or had obvious disease signs. The rat can freely obtain the drinking-water and feed for rodent (RM1(E)AQC). The feeding cage was controlled to receive 12 h illumination (from 07:00 to 19:00) and to be in a dark environment for 12 h, and the room temperature and relative humidity were controlled to be 21±3° C. and 55±15% respectively and not to deviate the upper and lower limit. The rats were randomly divided into groups depending on the body weight according to random number table to make the average weight in each group are approximately equal. Before the test, the rats were pre-trained suitably for one week (from −7th day to −1st day) during which the consumptions of feed and drinking water were recorded.
(§2) Each group of drug to be tested, positive control group, and blank control group consisted of 5 rats, respectively. The tested drug and positive control drug were mixed with wheaten starch before the administration and formulated to suspension with required doses according to 10 mL/kg of administration volume. The positive control drug was sibutramine hydrochloride and the administration dosage was 15 mg/kg body weight. In the blank control group, only equal amount of starch was used to formulate suspension for administration by […] in a same volume. The administration time is the 1st day, 2nd day and 3rd day. The body weight of the rat, the consumption of the feed (the weight of the feeding hopper) and consumption of the drinking water (bottle weight) were recorded from the −7th day to the 7th day.

[1] = Animal test in vivo: average body weight; design: species or system rat; details: positive control 15 mg/kg
Experimental: as §1, §2

Compound `CC(C)CC(N(C)C)C1(c2ccc(Cl)cc2)CCC1` (centres unmarked) [Positive control, sibutramine hydrochloride, reference compound] has an Average food consumptions (female Wistar rat; 1st day (administration day), Table 1, crude extract 300 mg/kg, others 50 mg/kg) of 5.0 g, an Average food consumptions (female Wistar rat; 1st day (administration day), Table 4, wilfosides 50 mg/kg) of 4 g and an Average food consumptions (female Wistar rat; 2nd day (administration day), Table 1, crude extract 300 mg/kg, others 50 mg/kg) of 8.5 g. It also gave an Average food consumptions (female Wistar rat; 2nd day (administration day), Table 4, wilfosides 50 mg/kg) of 7.6 g, an Average food consumptions (female Wistar rat; 3rd day (administration day), Table 1, crude extract 300 mg/kg, others 50 mg/kg) of 13.0 g and an Average food consumptions (female Wistar rat; 3rd day (administration day), Table 4, wilfosides 50 mg/kg) of 8.4 g. The Average food consumptions (female Wistar rat; 4th day (after administration on days 1-3), Table 1, crude extract 300 mg/kg, others 50 mg/kg) was 14.0 g, the Average food consumptions (female Wistar rat; 4th day (after administration on days 1-3), Table 4, wilfosides 50 mg/kg) was 10 g and the Average food consumptions (female Wistar rat; 5th day (after administration on days 1-3), Table 1, crude extract 300 mg/kg, others 50 mg/kg) was 13.5 g. The Average food consumptions (female Wistar rat; 5th day (after administration on days 1-3), Table 4, wilfosides 50 mg/kg) was 12.8 g, the Average food consumptions (female Wistar rat; 6th day (after administration on days 1-3), Table 1, crude extract 300 mg/kg, others 50 mg/kg) was 14.5 g and the Average food consumptions (female Wistar rat; 6th day (after administration on days 1-3), Table 4, wilfosides 50 mg/kg) was 14.4 g. It also gave an Average food consumptions (female Wistar rat; 7th day (after administration on days 1-3), Table 1, crude extract 300 mg/kg, others 50 mg/kg) of 17.5 g, an Average food consumptions (female Wistar rat; 7th day (after administration on days 1-3), Table 4, wilfosides 50 mg/kg) of 14.8 g and an Average food consumptions (female Wistar rat; −1st day (before administration), Table 1, crude extract 300 mg/kg, others 50 mg/kg) of 14.5 g. The Average food consumptions (female Wistar rat; −1st day (before administration), Table 4, wilfosides 50 mg/kg) was 13.2 g, the Average food consumptions (female Wistar rat; −2nd day (before administration), Table 1, crude extract 300 mg/kg, others 50 mg/kg) was 14.5 g and the Average food consumptions (female Wistar rat; −2nd day (before administration), Table 4, wilfosides 50 mg/kg) was 16 g. It also gave an Average food consumptions (female Wistar rat; −3rd day (before administration), Table 1, crude extract 300 mg/kg, others 50 mg/kg) of 15.5 g, an Average food consumptions (female Wistar rat; −3rd day (before administration), Table 4, wilfosides 50 mg/kg) of 12.8 g and an Average food consumptions (female Wistar rat; −4th day (before administration), Table 1, crude extract 300 mg/kg, others 50 mg/kg) of 14.5 g. For the same compound, the Average food consumptions (female Wistar rat; −4th day (before administration), Table 4, wilfosides 50 mg/kg) was 12.8 g, the Average food consumptions (female Wistar rat; −5th day (before administration), Table 1, crude extract 300 mg/kg, others 50 mg/kg) was 14.5 g and the Average food consumptions (female Wistar rat; −5th day (before administration), Table 4, wilfosides 50 mg/kg) was 14.8 g. For the same compound, the Average food consumptions (female Wistar rat; −6th day (before administration), Table 1, crude extract 300 mg/kg, others 50 mg/kg) was 15.3 g, the Average food consumptions (female Wistar rat; −6th day (before administration), Table 4, wilfosides 50 mg/kg) was 10.8 g and the Average food consumptions (female Wistar rat; −7th day (before administration), Table 1, crude extract 300 mg/kg, others 50 mg/kg) was 11.5 g. For the same compound, the Average food consumptions (female Wistar rat; −7th day (before administration), Table 4, wilfosides 50 mg/kg) was 10.4 g, the Average body weight ([1]; 1st day (administration day), Table 3, crude extract 300 mg/kg, others 50 mg/kg) was 142.4 g and the Average body weight ([1]; 1st day (administration day), Table 6, wilfosides 50 mg/kg) was 133.2 g. The Average body weight ([1]; 2nd day (administration day), Table 3, crude extract 300 mg/kg, others 50 mg/kg) was 140 g, the Average body weight ([1]; 2nd day (administration day), Table 6, wilfosides 50 mg/kg) was 128.4 g and the Average body weight ([1]; 3rd day (administration day), Table 3, crude extract 300 mg/kg, others 50 mg/kg) was 141.6 g. The Average body weight ([1]; 3rd day (administration day), Table 6, wilfosides 50 mg/kg) was 128.4 g, the Average body weight ([1]; 4th day (after administration on days 1-3), Table 3, crude extract 300 mg/kg, others 50 mg/kg) was 146.8 g and the Average body weight ([1]; 4th day (after administration on days 1-3), Table 6, wilfosides 50 mg/kg) was 132.4 g. It also gave an Average body weight ([1]; 5th day (after administration on days 1-3), Table 3, crude extract 300 mg/kg, others 50 mg/kg) of 148.4 g, an Average body weight ([1]; 5th day (after administration on days 1-3), Table 6, wilfosides 50 mg/kg) of 135.6 g and an Average body weight ([1]; 6th day (after administration on days 1-3), Table 3, crude extract 300 mg/kg, others 50 mg/kg) of 153.6 g. For the same compound, the Average body weight ([1]; 6th day (after administration on days 1-3), Table 6, wilfosides 50 mg/kg) was 138.4 g, the Average body weight ([1]; 7th day (after administration on days 1-3), Table 3, crude extract 300 mg/kg, others 50 mg/kg) was 158.8 g and the Average body weight ([1]; 7th day (after administration on days 1-3), Table 6, wilfosides 50 mg/kg) was 142 g. The Average body weight ([1]; −1st day (before administration), Table 3, crude extract 300 mg/kg, others 50 mg/kg) was 154.8 g, the Average body weight ([1]; −1st day (before administration), Table 6, wilfosides 50 mg/kg) was 145.6 g and the Average body weight ([1]; −2nd day (before administration), Table 3, crude extract 300 mg/kg, others 50 mg/kg) was 152.8 g. It also gave an Average body weight ([1]; −2nd day (before administration), Table 6, wilfosides 50 mg/kg) of 144.4 g, an Average body weight ([1]; −3rd day (before administration), Table 3, crude extract 300 mg/kg, others 50 mg/kg) of 152 g and an Average body weight ([1]; −3rd day (before administration), Table 6, wilfosides 50 mg/kg) of 140.8 g. It also gave an Average body weight ([1]; −4th day (before administration), Table 3, crude extract 300 mg/kg, others 50 mg/kg) of 149.6 g, an Average body weight ([1]; −4th day (before administration), Table 6, wilfosides 50 mg/kg) of 138 g and an Average body weight ([1]; −5th day (before administration), Table 3, crude extract 300 mg/kg, others 50 mg/kg) of 145.6 g. It also gave an Average body weight ([1]; −5th day (before administration), Table 6, wilfosides 50 mg/kg) of 135.6 g, an Average body weight ([1]; −6th day (before administration), Table 3, crude extract 300 mg/kg, others 50 mg/kg) of 144.8 g and an Average body weight ([1]; −6th day (before administration), Table 6, wilfosides 50 mg/kg) of 132.8 g. The Average body weight ([1]; −7th day (before administration), Table 3, crude extract 300 mg/kg, others 50 mg/kg) was 140.4 g and the Average body weight ([1]; −7th day (before administration), Table 6, wilfosides 50 mg/kg) was 132 g.
